Test results from ChEMBL document CHEMBL3046449, “Selective Herbicidal Activities of Ethyl 5-(4, 6-Dimethoxypyrimidin-2-ylcarbamoylsulfamoyl)-1-methylpyrazole-4-carboxylate and Its Related Compounds” (J Pestic Sci, 1990).

Columns and labels:
Rotala indica = test: Herbicidal activity against Rotala indica assessed as growth inhibition in paddy condition under greenhouse at 5 g/ha measured after 18 days by preemergence activity assay; type: functional; conditions: pre-emergence, 432 h, read-out: GI
Pontederia vaginalis [1] = test: Herbicidal activity against Monochoria vaginalis assessed as growth inhibition in paddy condition under greenhouse at 5 g/ha measured after 18 days by preemergence activity assay; type: functional; conditions: pre-emergence, 432 h, read-out: GI
[2] = Phytotoxicity against Oryza sativa (rice) assessed as growth inhibition under greenhouse at 5 g/ha measured after 18 days by preemergence activity assay; type: organism-based; conditions: in vivo, read-out: GI
[3] = tested on: Schoenoplectiella juncoides; test: Herbicidal activity against Schoenoplectiella juncoides assessed as growth inhibition in paddy condition under greenhouse at 5 g/ha measured after 18 days by preemergence activity assay; type: functional; conditions: pre-emergence, 432 h, read-out: GI
Echinochloa crus-galli [4] = test: Herbicidal activity against Echinochloa crus-galli (barnyard grass) assessed as growth inhibition in paddy condition under greenhouse at 5 g/ha measured after 18 days by preemergence activity assay; type: functional; conditions: pre-emergence, 432 h, read-out: GI
Oryza sativa [5] = test: Effect on Oryza sativa (rice) plant growth in transplanted Oryza sativa field assessed as number of tillers at 1500 g/ha treated after 3 days transplanting; type: organism-based; conditions: in vivo, other, 72 h
Oryza sativa [6] = test: Effect on Oryza sativa (rice) plant growth in transplanted Oryza sativa field assessed as plant height at 1500 g/ha treated after 7 days transplanting; type: organism-based; conditions: in vivo, other, 168 h
Oryza sativa [7] = test: Effect on Oryza sativa (rice) plant growth in transplanted Oryza sativa field assessed as number of tillers at 1500 g/ha treated after 7 days transplanting; type: organism-based; conditions: in vivo, other, 168 h
Pontederia vaginalis [8] = test: Herbicidal activity against Monochoria vaginalis assessed as weed control in transplanted rice field at 1500 g/ha treated after 7 days transplanting; type: functional
Echinochloa crus-galli [9] = test: Herbicidal activity against Echinochloa crus-galli (barnyard grass) assessed as weed control in transplanted rice field at 1500 g/ha treated after 3 days transplanting; type: functional
unidentified [10] = test: Herbicidal activity against broadleaf weed assessed as weed control in transplanted rice field at 1500 g/ha treated after 3 days transplanting; type: functional
Cyperus serotinus [11] = test: Herbicidal activity against Cyperus serotinus assessed as weed control in transplanted rice field at 1500 g/ha treated after 3 days transplanting; type: functional
Cyperus serotinus [12] = test: Herbicidal activity against Cyperus serotinus assessed as weed control in transplanted rice field at 1500 g/ha treated after 7 days transplanting; type: functional
unidentified [13] = test: Herbicidal activity against broadleaf weed assessed as weed control in transplanted rice field at 1500 g/ha treated after 7 days transplanting; type: functional
[14] = tested on: Schoenoplectiella juncoides; test: Herbicidal activity against Schoenoplectiella juncoides assessed as weed control in transplanted rice field at 1500 g/ha treated after 3 days transplanting; type: functional
Oryza sativa [15] = test: Effect on Oryza sativa (rice) plant growth in transplanted Oryza sativa field assessed as plant height at 1500 g/ha treated after 3 days transplanting; type: organism-based; conditions: in vivo, other, 72 h
[16] = tested on: Schoenoplectiella juncoides; test: Herbicidal activity against Schoenoplectiella juncoides assessed as weed control in transplanted rice field at 1500 g/ha treated after 7 days transplanting; type: functional
Sagittaria pygmaea [17] = test: Herbicidal activity against Sagittaria pygmaea assessed as weed control in transplanted rice field at 1500 g/ha treated after 3 days transplanting; type: functional
Sagittaria pygmaea [18] = test: Herbicidal activity against Sagittaria pygmaea assessed as weed control in transplanted rice field at 1500 g/ha treated after 7 days transplanting; type: functional
Echinochloa crus-galli [19] = test: Herbicidal activity against Echinochloa crus-galli (barnyard grass) assessed as weed control in transplanted rice field at 1500 g/ha treated after 7 days transplanting; type: functional
Pontederia vaginalis [20] = test: Herbicidal activity against Monochoria vaginalis assessed as weed control in transplanted rice field at 1500 g/ha treated after 3 days transplanting; type: functional

SMILES	inhibition of growth at 5 g/ha (Rotala indica)	inhibition of growth at 5 g/ha (Pontederia vaginalis [1])	inhibition at 432 h [2]	inhibition of growth at 5 g/ha [3]	inhibition of growth at 5 g/ha (Echinochloa crus-galli [4])	also measured
CCOC(=O)c1c(CC)nn(C)c1S(=O)(=O)NC(=O)Nc1nc(OC)cc(OC)n1	> 90%	70%	< 5%	40%	20%	
CCOC(=O)c1c(Cl)nn(C)c1S(=O)(=O)NC(=O)Nc1nc(OC)cc(OC)n1	> 90%	> 90%	< 5%	70%	20%	
CCOC(=O)c1c(C(F)(F)F)nn(C)c1S(=O)(=O)NC(=O)Nc1nc(OC)cc(OC)n1	20%	< 5%	< 5%	< 5%	< 5%	
CCOC(=O)c1c([N+](=O)[O-])nn(C)c1S(=O)(=O)NC(=O)Nc1nc(OC)cc(OC)n1	70%	20%	5%	5%	< 5%	
CCOC(=O)c1c(OC)nn(C)c1S(=O)(=O)NC(=O)Nc1nc(OC)cc(OC)n1	> 90%	> 90%	< 5%	70%	40%	
CCOC(=O)c1nn(C)c(S(=O)(=O)NC(=O)Nc2nc(OC)cc(OC)n2)c1C(=O)OCC	< 5%	< 5%	< 5%	< 5%	< 5%	
CCCOC(=O)c1cnn(C)c1S(=O)(=O)NC(=O)Nc1nc(OC)cc(OC)n1	> 90%	> 90%	< 5%	70%	< 5%	
CCCCOC(=O)c1cnn(C)c1S(=O)(=O)NC(=O)Nc1nc(OC)cc(OC)n1	< 5%	< 5%	< 5%	< 5%	< 5%	
COc1cc(OC)nc(NC(=O)NS(=O)(=O)c2c(C(=O)N(C)C)cnn2C)n1	< 5%	< 5%	< 5%	< 5%	< 5%	
COc1cc(OC)nc(NC(=O)NS(=O)(=O)c2c(S(=O)(=O)N(C)C)cnn2C)n1	> 90%	70%	> 90%	> 90%	40%	
COc1cc(OC)nc(NC(=O)NS(=O)(=O)c2c(C#N)cnn2C)n1	< 5%	< 5%	< 5%	< 5%	< 5%	
COc1cc(OC)nc(NC(=O)NS(=O)(=O)c2c([N+](=O)[O-])cnn2C)n1	< 5%	< 5%	< 5%	< 5%	< 5%	
CCC(=O)c1cnn(C)c1S(=O)(=O)NC(=O)Nc1nc(OC)cc(OC)n1	40%	40%	< 5%	20%	5%	
CCOC(=O)c1cn[nH]c1S(=O)(=O)NC(=O)Nc1nc(OC)cc(OC)n1	70%	70%	5%	70%	5%	
CCOC(=O)c1cnn(CC)c1S(=O)(=O)NC(=O)Nc1nc(OC)cc(OC)n1	> 90%	> 90%	5%	70%	5%	
CCCCn1ncc(C(=O)OCC)c1S(=O)(=O)NC(=O)Nc1nc(OC)cc(OC)n1	< 5%	< 5%	< 5%	< 5%	< 5%	
CCOC(=O)c1cnn(-c2ccccc2)c1S(=O)(=O)NC(=O)Nc1nc(OC)cc(OC)n1	70%	40%	< 5%	20%	< 5%	
CCOC(=O)c1cnn(C)c1S(=O)(=O)NC(=O)Nc1nc(C)cc(C)n1	40%	< 5%	5%	< 5%	< 5%	
CCOC(=O)c1cnn(C)c1S(=O)(=O)NC(=O)Nc1nc(C)cc(OC)n1	> 90%	70%	< 5%	70%	5%	
CCOC(=O)c1cnn(C)c1S(=O)(=O)NC(=O)Nc1nc(OC)nc(OC)n1	< 5%	< 5%	5%	< 5%	< 5%	
COc1cc(OC)nc(NC(=O)NS(=O)(=O)c2c(C)cnn2C)n1	70%	40%	< 5%	20%	20%	
COc1cc(OC)nc(NC(=O)NS(=O)(=O)c2c(Br)cnn2C)n1	40%	70%	< 5%	40%	< 5%	
COc1cc(OC)nc(NC(=O)NS(=O)(=O)c2c(C(=O)O)cnn2C)n1	< 5%	< 5%	< 5%	< 5%	< 5%	
COC(=O)c1cnn(C)c1S(=O)(=O)NC(=O)Nc1nc(OC)cc(OC)n1	> 90%	> 90%	< 5%	70%	40%	
CCOC(=O)c1c(C)nn(C)c1S(=O)(=O)NC(=O)Nc1nc(OC)cc(OC)n1	> 90%	> 90%	< 5%	> 90%	70%	
CCCCOCN(C(=O)CCl)c1c(CC)cccc1CC [BUTACHLOR]						Activity (Oryza sativa [5]): 99%; Activity (Oryza sativa [6]): 103%; Activity (Oryza sativa [7]): 93%; Activity (Pontederia vaginalis [8]): 43%; Activity (Echinochloa crus-galli [9]): 98%; Activity (unidentified [10]): 100%; Activity (Cyperus serotinus [11]): 63%; Activity (Cyperus serotinus [12]): 70%; Activity (unidentified [13]): 83%; Activity [14]: 100%; Activity (Oryza sativa [15]): 106%; Activity [16]: 88%; Activity (Sagittaria pygmaea [17]): 27%; Activity (Sagittaria pygmaea [18]): 20%; Activity (Echinochloa crus-galli [19]): 100%; Activity (Pontederia vaginalis [20]): 90%
